Experimental data: paper PMC2653417 (Bioorganic & medicinal chemistry letters, 2008)

Assays:
[1] = test system: HER2 over-expressing SKBr3 breast cancer cells; assay: cell growth inhibition assay; format: cell-based; details: Homo sapiens, SK-BR-3, 72 h, read-out: IC50 SKBr3
[2] = test system: Raf-1; assay: Western blot assay, client protein degradation; format: cell-based
[3] = test system: PRAS40; assay: Western blot assay, client protein degradation; format: cell-based
[4] = read-out: IC50 cell growth inhibition; cited from earlier work
[5] = target: T1, Hsp90 (Homo sapiens, UniProt P07900); details: cited from earlier work
[6] = target: T1, Hsp90; details: cited from earlier work; remark: listed apart in the source
[7] = target: T1, Hsp90; assay: fluorescent polarization

Row | Compound | IC50 [1] | effect on Raf-1 degradation [2] | effect on PRAS40 degradation [3] | other results
1 | O=S(=O)(Nc1ccc(O)c(-c2c(O)ccc3c2OCO3)c1)c1cc(Cl)ccc1Cl [Compound 17] | 4.4 µM | – | – | –
2 | O=S(=O)(Nc1ccc(O)c(-c2c(O)ccc3ccccc23)c1)c1cc(Cl)ccc1Cl [Compound 2] | 6.5 µM | neither had any effect | neither had any effect | IC50 [4]: 29 µM
3 | O=S(=O)(Nc1ccc(O)c(-c2c(O)ccc3ccccc23)c1)c1ccccc1 [Compound 1] | – | – | – | activity in FP assay [5]: low micromolar activity; activity in malachite green assay [6]: low micromolar activity
4 | O=S(=O)(Nc1ccc(O)c(-c2ccccc2O)c1)c1cc(Cl)ccc1Cl [Compound 9a] | – | – | – | fold less activity than 2 in FP assay ([7]; relative to compound 2): about 20 fold
5 | COc1ccc(O)c(O)c1-c1cc(NS(=O)(=O)c2cc(Cl)ccc2Cl)ccc1N [Compound 13] | 6 µM | neither had any effect | neither had any effect | IC50 FP ([7]; mean of 2 independent determinations, maximum concentration tested 50 µM): sub-micromolar
